# Values of other authors as cited in patent publication US20210024636A1, “COMPOSITIONS AND METHODS FOR TREATING SEXUAL DYSFUNCTION” (ChemistryRX, priority 2019, published 2021).
# What was measured:
# [1] = tested on: T-cell adhesion to ICAM-1; details: human T-cell line, in vitro
# [2] = tested on: human peripheral blood mononuclear cells; details: in vitro
smiles,measurement,setting,value
CS(=O)(=O)c1cccc(C[C@H](NC(=O)c2c(Cl)cc3c(c2Cl)CCN(C(=O)c2ccc4ccoc4c2)C3)C(=O)O)c1 [lifitegrast],inhibition of T-cell adhesion to ICAM-1,[1],may inhibit T-cell adhesion to ICAM-1
same,inhibition of secretion of inflammatory cytokines,[2],may inhibit secretion of inflammatory cytokines
